Test system: healthy subjects
Test: Phase 1 study in healthy subjects: adverse events and acute effects
Type: in vivo, human
Experimental: A Phase 1 randomized, double-blind, placebo-controlled study to evaluate the effect of psilocybin on cognitive and emotional processing as compared to placebo in healthy volunteers was conducted. The study investigated the short-term (Day 7) and long-term (Day 28) effects of moderate (10 mg) and high doses (25 mg) of psilocybin on key domains of cognition, such as episodic memory, attention, working and spatial memory, social cognition and elements of executive function, including cognitive flexibility.
90 healthy subjects were studied. Approximately 50% of the subjects were psilocybin-naïve. For subjects with prior psilocybin experience, the last exposure was at least 1 year prior to the signing of the Informed Consent Form (ICF). Approximately 50% of the subjects were female. Subjects were stratified by sex and age (18-35 years old; >35 years old).
Each subject was assigned 1 treatment bottle containing 5 capsules packaged in a double-blind fashion, depending on the randomized treatment arm, the bottle contained one of the following: • a. Psilocybin 10 mg: 2×5-mg oral psilocybin capsules plus 3×placebo capsules • b. Psilocybin 25 mg: 5×5-mg oral psilocybin capsules • c. Placebo: 5×placebo capsules
Each 5-mg oral psilocybin capsule comprised 5 mg crystalline psilocybin in the form of Polymorph A, 12.5 mg of SMCC 50, 79.5 mg of SMCC 90, 1 mg sodium starch glycolate, 1 mg colloidal silicon dioxide, and 1 mg sodium stearyl fumarate
Adverse events: Throughout the course of the study, all AEs were monitored and recorded. Each AE was classified according to the following criteria: • i. […] Moderate: The AE produces some impairment of functioning, but is not hazardous to the subject's health. • iii. Severe: The AE produces significant impairment of functioning or incapacitation and is a definite hazard to the subject's health.
Selected Adverse Events of included: • (a) Euphoric mood • (b) Dissociative disorder • (c) Hallucination • (d) Psychotic disorder • (e) Cognitive disorder • (f) Disturbance in attention • (g) Altered mood • (h) Impairment of psychomotor skills • (i) Inappropriate affect • (j) Overdose • (k) Intentional product misuse • (l) Illusion
For example, drug-induced hepatitis that resolved without evidence of hepatic failure would not be considered life threatening even though drug-induced hepatitis can be fatal. • (c) Inpatient hospitalization or prolongation of existing hospitalization. • (d) Persistent or significant disability/incapacity. • (e) Congenital anomaly/birth defect in the offspring of a subject who received psilocybin. • (f) Other: Important medical events that may not result in death, be life-threatening, or require hospitalization, may be considered an SAE when, based upon appropriate medical judgment, they may jeopardize the subject and may require medical or surgical intervention to prevent one of the outcomes listed in this definition. […] Visits:
Visit 3 (V3): Drug Administration (Day 0): The subject was asked to eat a light breakfast at least two hours prior to coming to the clinic for study drug administration. On Day 0 (V3), the subject underwent the SSTS, had vital signs obtained, medications reviewed, AEs recorded and eligibility reviewed prior to being randomized to study drug. The study drug was administered to up to six subjects simultaneously in individual beds separated by a curtain. The subject was invited to put on eyeshades and headphones, lie down and listen to calming music for the rest of the session (six hours). The subject was supported 1:1 with a chaperone and supervised by the study psychiatrist and lead therapist.
The effects of psilocybin usually started about 20 to 30 min after administration, becoming most intense in the first 90 to 120 min and gradually subsiding in about 5 to 6 hours. […]

## CN(C)CCc1c[nH]c2cccc(OP(=O)(O)O)c12 [Psilocybin, psilocybin]
10 mg
  Illusion, worst severity Moderate: Events: 16
10 mg and 25 mg, 12-week study
  Serious adverse events or adverse events that led to withdrawal: no serious adverse events
Psilocybin 10 mg (N = 30)
  Selected TEAE (any), subjects N (%): 27 (90.0) N (%)
  Selected TEAE: Affect lability, Events: 5
  Selected TEAE: Affect lability, subjects N (%): 5 (16.7) N (%)
  Selected TEAE: Change in sustained attention, Events: 2
  Selected TEAE: Change in sustained attention, subjects N (%): 2 (6.7) N (%)
  Selected TEAE: Depressed mood, Events: 1
  Selected TEAE: Depressed mood, subjects N (%): 1 (3.3) N (%)
  Selected TEAE: Dissociative identity disorder, Events: 2
  Selected TEAE: Dissociative identity disorder, subjects N (%): 1 (3.3) N (%)
  Selected TEAE: Euphoric mood, Events: 7
  Selected TEAE: Euphoric mood, subjects N (%): 7 (23.3) N (%)
  Selected TEAE: Hallucination, Events: 3
  Selected TEAE: Hallucination, auditory, Events: 4
  Selected TEAE: Hallucination, auditory, subjects N (%): 4 (13.3) N (%)
  Selected TEAE: Hallucination, gustatory, Events: 1
  Selected TEAE: Hallucination, gustatory, subjects N (%): 1 (3.3) N (%)
  Selected TEAE: Hallucination, olfactory, Events: 1
  Selected TEAE: Hallucination, olfactory, subjects N (%): 1 (3.3) N (%)
  Selected TEAE: Hallucination, subjects N (%): 3 (10.0) N (%)
  Selected TEAE: Hallucination, tactile, Events: 2
  Selected TEAE: Hallucination, tactile, subjects N (%): 2 (6.7) N (%)
  Selected TEAE: Hallucination, visual, Events: 20
  Selected TEAE: Hallucination, visual, subjects N (%): 18 (60.0) N (%)
  Selected TEAE: Illusion, Events: 25
  Selected TEAE: Illusion, subjects N (%): 19 (63.3) N (%)
  Selected TEAE: Memory impairment, Events: 1
  Selected TEAE: Memory impairment, subjects N (%): 1 (3.3) N (%)
  Selected TEAE: Mood altered, Events: 23
  Selected TEAE: Mood altered, subjects N (%): 13 (43.3) N (%)
  Selected TEAE: Nervous system disorders (SOC), Events: 2
  Selected TEAE: Nervous system disorders (SOC), subjects N (%): 2 (6.7) N (%)
  Selected TEAE: Psychiatric disorders (SOC), Events: 104
  Selected TEAE: Psychiatric disorders (SOC), subjects N (%): 27 (90.0) N (%)
  Selected TEAE: Psychomotor skills impaired, Events: 1
  Selected TEAE: Psychomotor skills impaired, subjects N (%): 1(3.3) N (%)
  Selected TEAE: Somatic hallucination, Events: 8
  Selected TEAE: Somatic hallucination, subjects N (%): 8 (26.7) N (%)
  Selected TEAE: Substance-induced psychotic disorder, Events: 0
  Selected TEAE: Substance-induced psychotic disorder, subjects N (%): 0 N (%)
Psilocybin 25 mg (N = 30)
  Selected TEAE (any), subjects N (%): 27 (90.0) N (%)
  Selected TEAE: Affect lability, Events: 3
  Selected TEAE: Affect lability, subjects N (%): 3 (10.0) N (%)
  Selected TEAE: Change in sustained attention, Events: 0
  Selected TEAE: Change in sustained attention, subjects N (%): 0 N (%)
  Selected TEAE: Depressed mood, Events: 2
  Selected TEAE: Depressed mood, subjects N (%): 2 (6.7) N (%)
  Selected TEAE: Dissociative identity disorder, Events: 2
  Selected TEAE: Dissociative identity disorder, subjects N (%): 2 (6.7) N (%)
  Selected TEAE: Euphoric mood, Events: 8
  Selected TEAE: Euphoric mood, subjects N (%): 7 (23.3) N (%)
  Selected TEAE: Hallucination, Events: 2
  Selected TEAE: Hallucination, auditory, Events: 4
  Selected TEAE: Hallucination, auditory, subjects N (%): 4 (13.3) N (%)
  Selected TEAE: Hallucination, gustatory, Events: 0
  Selected TEAE: Hallucination, gustatory, subjects N (%): 0 N (%)
  Selected TEAE: Hallucination, olfactory, Events: 1
  Selected TEAE: Hallucination, olfactory, subjects N (%): 1 (3.3) N (%)
  Selected TEAE: Hallucination, subjects N (%): 2 (6.7) N (%)
  Selected TEAE: Hallucination, tactile, Events: 4
  Selected TEAE: Hallucination, tactile, subjects N (%): 4 (13.3) N (%)
  Selected TEAE: Hallucination, visual, Events: 22
  Selected TEAE: Hallucination, visual, subjects N (%): 21 (70.0) N (%)
  Selected TEAE: Illusion, Events: 26
  Selected TEAE: Illusion, subjects N (%): 18 (60.0) N (%)
  Selected TEAE: Memory impairment, Events: 0
  Selected TEAE: Memory impairment, subjects N (%): 0 N (%)
  Selected TEAE: Mood altered, Events: 25
  Selected TEAE: Mood altered, subjects N (%): 15 (50.0) N (%)
  Selected TEAE: Nervous system disorders (SOC), Events: 0
  Selected TEAE: Nervous system disorders (SOC), subjects N (%): 0 N (%)
  Selected TEAE: Psychiatric disorders (SOC), Events: 106
  Selected TEAE: Psychiatric disorders (SOC), subjects N (%): 27 (90.0) N (%)
  Selected TEAE: Psychomotor skills impaired, Events: 0
  Selected TEAE: Psychomotor skills impaired, subjects N (%): 0 N (%)
  Selected TEAE: Somatic hallucination, Events: 6
  Selected TEAE: Somatic hallucination, subjects N (%): 5 (16.7) N (%)
  Selected TEAE: Substance-induced psychotic disorder, Events: 1
  Selected TEAE: Substance-induced psychotic disorder, subjects N (%): 1 (3.3) N (%)
